Source: USRE46095E1, “Herbicidal compositions” (BAYER CROPSCIENCE AG, priority 2008, dated 2016)
Counter-ions that a name gives are not always drawn.

How the values were obtained:
Format in all cases: in vivo
Geranium dissectum = assay: Pre-emergence herbicidal action, pot trial/greenhouse (Example 5.3, Table 6); conditions: 672 h, read-out: Herbicidal action [%] against Geranium dissectum; for pest or weed control at 50 g/ha: 50 g of AS/ha
From the text: (§1) Seeds or rhizome pieces of monocotyledonous and dicotyledonous harmful plants are placed in sandy loam in pots and covered with soil. The compositions, formulated as concentrated aqueous solutions, wettable powders or emulsion concentrates, are then applied to the surface of the covering soil as an aqueous solution, suspension or emulsion at an application rate of 300 to 800I of water/ha (converted) in a variety of dosages. After the treatment, the pots are placed in a green-house and kept under good growth conditions for the weeds. Visual scoring of plant or emergence damage is carried out after the test plants have emerged after an experimental period of 3 to 4 weeks in comparison with untreated controls.
(§2) The herbicidal efficacy of the active compounds or active compound mixtures was scored visually by comparing the treated pots (soil) with untreated controls. The damage and development of all above-ground plant parts was recorded. Scoring was done on a percentage scale (example values: 100% action=all plants dead or not emerged; 50% action=50% of the plants and green plant parts dead or not emerged; 0% action=no discernible action=like control plot). The score figures of in any case 2 repetitions (pots) were averaged.
(§3) When the data observed already exceed the formal total of the data in the experiments with individual applications, they likewise exceed the expected value according to Colby, which is calculated using the formula below and is likewise regarded as an indication of synergism (cf. S. R. Colby; in Weeds 15 (1967) pp. 20 to 22): E=A+B−(A·B/100)
(§4) In this formula: • A=action of active compound (A) in % at an application rate of a g of AS/ha; • B=action of active compound (B) in % at an application rate of b g of AS/ha; • E=expected value of the action of the combination (A)+(B) in % at the combined application rate a+b g of AS/ha.
(§5) The following abbreviations are used in the description and the tables below: • g of AS/ha=grams of active substance (=100% active compound) per hectare; • the total of the activities of the individual applications is given as E^A; • the expected values according to Colby are in each case given as E^C; Example 5.1
(§6) Certain combinations were tested for their herbicidal activity in accordance with the general example 1 (pre-emergence method).

Ipomoea hederifolia = assay: Pre-emergence herbicidal action, pot trials/greenhouse (Example 5.1, Table 4); conditions: evaluation 27 days after treatment
From the text: as §1, §2, §3, §4, §5, §6

Erodium cicutarium = assay: Pre-emergence herbicidal action, pot trials/greenhouse (Example 5.2, Table 5); conditions: evaluation 28 days after treatment
From the text: as §1, §2, §3, §4, §5, §6

[1] = pot trial/greenhouse, evaluation 28 days after treatment

CCOC1Oc2ccc(OS(C)(=O)=O)cc2C1(C)C (racemic) [(B2.5), (RS)—O-(2-ethoxy-2,3-dihydro-3,3-dimethylbenzofuran-5-yl)methanesulfonate]
pest or weed control at 300 g/ha (Geranium dissectum; 300 g of AS/ha, pot trial/greenhouse, evaluation 28 days after treatment): 35%

Cc1ccc2c(c1)[C@H](Nc1nc(N)nc([C@@H](C)F)n1)[C@@H](C)C2 [(A21), 2-amino-4-[(1R,2S)-2,6-dimethyl-indan-1-ylamino]-6-[(1R)-1-fluoroethyl]-1,3,5-triazine]
Herbicidal action [%] against Ipomoea hederifolia (Ipomoea hederifolia; 0.2 g of AS/ha): 0%
Herbicidal action [%] against Ipomoea hederifolia (Ipomoea hederifolia; 0.5 g of AS/ha): 45%
Herbicidal action [%] against Erodium cicutarium (Erodium cicutarium; 0.2 g of AS/ha): 0%
Herbicidal action [%] against Erodium cicutarium (Erodium cicutarium; 0.8 g of AS/ha): 25%
pest or weed control at 0.3 g/ha (Geranium dissectum; 0.3 g of AS/ha, pot trial/greenhouse, evaluation 28 days after treatment): 5%
pest or weed control at 1.2 g/ha (Geranium dissectum; 1.2 g of AS/ha, pot trial/greenhouse, evaluation 28 days after treatment): 20%

COC(=O)c1csc(C)c1S(=O)(=O)NC(=O)n1nc(OC)n(C)c1=O [(B1.1.2), methyl 4-[(4,5-dihydro-3-methoxy-4-methyl-5-oxo-1H-1,2,4-triazol-1-yl)carbonylsulfamoyl]-5-methylthiophene-3-carboxylate]
Herbicidal action [%] against Ipomoea hederifolia (Ipomoea hederifolia; 0.5 g of AS/ha): 5%
Herbicidal action [%] against Ipomoea hederifolia (Ipomoea hederifolia; 2.0 g of AS/ha): 50%

CS(=O)(=O)c1ccc(C(=O)C2C(=O)CCCC2=O)c(Cl)c1COCC(F)(F)F [(B1.2.1), 2-{2-chloro-4-mesyl-3-[(2,2,2-trifluoroethoxy)methyl]benzoyl}cyclohexane-1,3-dione]
Herbicidal action [%] against Erodium cicutarium (Erodium cicutarium; 50 g of AS/ha): 30%

CCOC(=O)COc1ncccc1Oc1cc(-n2c(=O)cc(C(F)(F)F)n(C)c2=O)c(F)cc1Cl [(B1.3), ethyl [[3-[2-chloro-5-[3,6-dihydro-3-methyl-2,6-dioxo-4-(trifluoromethyl)-1(2H)-pyrimidinyl]-4-fluorophenoxy]-2-pyridinyl]oxy]acetate]
Herbicidal action [%] against Erodium cicutarium (Erodium cicutarium; 15 g of AS/ha): 65%

COc1cc(OC)n2nc(NS(=O)(=O)c3c(C(F)(F)F)ccnc3OC)nc2n1 [(B1.4.1), N-(5,7-dimethoxy[1,2,4]triazolo[1,5-a]pyrimidin-2-yl)-2-methoxy-4-(trifluoromethyl)pyridine-3-sulfonamide]
Herbicidal action [%] against Erodium cicutarium (Erodium cicutarium; 5 g of AS/ha): 50%

COCCOCc1nc(C(F)(F)F)ccc1C(=O)C1=C(O)C2CCC(C2)C1=O (stereo not shown) [(B1.6.1), 4-hydroxy-3-[[2-[(2-methoxyethoxy)methyl]-6-trifluoromethyl-3-pyridinyl]carbonyl]-bicyclo[3.2.1]oct-3-en-2-one]
Herbicidal action [%] against Erodium cicutarium (Erodium cicutarium; 30 g of AS/ha): 55%

Cc1nn(C)c(O)c1C(=O)c1ccc(C(F)(F)F)cc1S(C)(=O)=O [(B2.1.1), (5-hydroxy-1,3-dimethyl-1H-pyrazol-4-yl)-[2-(methylsulfonyl)-4-(trifluoromethyl)-phenyl]methanone]
pest or weed control at 30 g/ha (Geranium dissectum; 30 g of AS/ha, pot trial/greenhouse, evaluation 28 days after treatment): 20%

COc1cc(OC)nc(NC(=O)NS(=O)(=O)c2ncccc2OCC(F)(F)F)n1 [(B2.2.2), 1-(4,6-dimethoxypyrimidin-2-yl)-3-[3-(2,2,2-trifluoroethoxy)-2-pyridylsulfonyl]urea sodium salt]
pest or weed control at 25 g/ha (Geranium dissectum): 45%

CC(C)N(C)S(=O)(=O)NC(=O)c1cc(-n2c(=O)cc(C(F)(F)F)n(C)c2=O)c(F)cc1Cl [(B2.3.1), 2-chloro-5-[3,6-dihydro-3-methyl-2,6-dioxo-4-(trifluoromethyl)-1 (2H)-pyrimidinyl]-4-fluoro-N-[[methyl(1-methylethyl)amino]sulfonyl]benzamide]
pest or weed control at 50 g/ha (Geranium dissectum; [1]): 65%

Nc1cc(Cl)nc(C(=O)O)c1Cl [(B2.4.1), 4-amino-3,6-dichloropyridine-2-carboxylic acid]
pest or weed control at 75 g/ha (Geranium dissectum; 75 g of AS/ha, pot trial/greenhouse, evaluation 28 days after treatment): 50%

Nc1nc(C2CC2)nc(C(=O)O)c1Cl [(B2.6.1), 6-amino-5-chloro-2-cyclopropylpyrimidine-4-carboxylic acid]
pest or weed control at 100 g/ha (Geranium dissectum; 100 g of AS/ha, pot trial/greenhouse, evaluation 28 days after treatment): 65%

Cn1nc(C(F)(F)F)c(CS(=O)(=O)C2=NOC(C)(C)C2)c1OC(F)F [(B3.1), 3-[5-(difluoromethoxy)-1-methyl-3-(trifluoromethyl)pyrazol-4-ylmethylsulfonyl]-4,5-dihydro-5,5-dimethyl-1,2-oxazole]
pest or weed control at 50 g/ha (Geranium dissectum; [1]): 50%
